Earlier results, collected in patent publication US20040038429A1, “Method of searching for novel lead compound” (priority 2000, published 2004).

Biological target: Thrombin (Homo sapiens, UniProt P00734)
Settings: not given

Row | Structure (SMILES) | Known bioactivity
1 | CC(=O)O.N=C(N)c1ccc(CC(NC(=O)CNS(=O)(=O)c2ccc3ccccc3c2)C(=O)N2CCCCC2)cc1 (stereo not shown) | Thrombin inhibitor
2 | N=C(N)c1ccc(CC(NC(=O)CNS(=O)(=O)c2ccc3ccccc3c2)C(=O)N2CCCCC2)cc1 (stereo not shown) [drawing 16] | Thrombin inhibitor
3 | N=C(N)c1ccc(CC(NC(=O)CNS(=O)(=O)c2ccc3ccccc3c2)C(=O)N2CCCCC2)cc1 (stereo not shown) [drawing 31] | Thrombin inhibitor
4 | N=C(N)c1ccc(CC(NC(=O)CNS(=O)(=O)c2ccc3ccccc3c2)C(=O)N2CCCCC2)cc1 (stereo not shown) [drawing 33] | Thrombin inhibitor

Same assay, conditions: thrombin

Row | Structure (SMILES) | Known bioactivity
5 | COC(=O)[C@H](CCCCN)NS(=O)(=O)c1ccc(C)cc1.Cl | Thrombin substrate
6 | COC(=O)[C@H](CCCCN)NS(=O)(=O)c1ccc(C)cc1 | Thrombin substrate
7 | Cc1ccc(S(=O)(=O)NC(Cc2ccc(C(=N)N)cc2)C(=O)N2CCCCC2)cc1 (racemic) [4-TAPAP, Nα-(4-toluene-sulfonyl)-DL-p-amidinophenylalanyl-piperidine, reference compound] | thrombin inhibitors
8 | C[C@@H]1CCN(C(=O)[C@H](CCCNC(=N)N)NS(=O)(=O)c2cccc3c2NC[C@H](C)C3)[C@@H](C(=O)O)C1 [MQPA, (2R,4R)-4-methyl-1-[Nα-(3-methyl-1,2,3,4-tetrahydro-8-quinolinesulfonyl)-L-arginyl]-2-piperidinecarboxylic acid, reference compound] | thrombin inhibitors
9 | CCC1CCCN(C(=O)[C@H](CCCNC(=N)N)NS(=O)(=O)c2cccc3c(N(C)C)cccc23)C1 (stereo partly shown) [drawing 26] | Thrombin inhibitor
10 | CCC1CCCN(C(=O)[C@H](CCCNC(=N)N)NS(=O)(=O)c2cccc3c(N(C)C)cccc23)C1 (stereo partly shown) [drawing 32] | Thrombin inhibitor

Biological target: 5-HT4 (Homo sapiens, UniProt Q13639)
Sequence (Q13639 whole entry, species assumed): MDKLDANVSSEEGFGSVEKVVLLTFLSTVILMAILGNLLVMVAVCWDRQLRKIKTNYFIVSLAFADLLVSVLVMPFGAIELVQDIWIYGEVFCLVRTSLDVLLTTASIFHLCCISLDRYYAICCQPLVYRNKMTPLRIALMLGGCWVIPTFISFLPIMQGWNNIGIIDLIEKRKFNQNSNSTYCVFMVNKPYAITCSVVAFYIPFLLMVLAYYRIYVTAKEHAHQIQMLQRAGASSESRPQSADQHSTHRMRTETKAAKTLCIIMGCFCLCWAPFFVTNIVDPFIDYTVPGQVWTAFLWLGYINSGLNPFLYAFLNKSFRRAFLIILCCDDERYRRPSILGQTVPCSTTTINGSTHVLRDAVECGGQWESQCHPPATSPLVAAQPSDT
Settings: not given

Row | Structure (SMILES) | Known bioactivity
11 | COc1cc(N)c(Cl)cc1C(=O)CCC1CCN(CCNS(C)(=O)=O)CC1 | 5-HT4 Partial agonist

Biological target: T1, Trypsin (Bos taurus, UniProt P00760)
T1 construct: gene PRSS1
T1 sequence (P00760 24-246): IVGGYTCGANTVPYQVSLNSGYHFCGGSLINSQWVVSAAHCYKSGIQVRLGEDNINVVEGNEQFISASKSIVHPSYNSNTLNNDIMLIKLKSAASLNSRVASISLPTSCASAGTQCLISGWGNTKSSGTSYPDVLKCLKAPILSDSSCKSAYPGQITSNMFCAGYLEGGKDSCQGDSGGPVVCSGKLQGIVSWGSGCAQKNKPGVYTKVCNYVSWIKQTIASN
Settings: not given

Row | Structure (SMILES) | Known bioactivity
12 | Cc1ccc(S(=O)(=O)N[C@@H](CCCCN)C(=O)CCl)cc1.Cl | Trypsin inhibitor
13 | Cc1ccc(S(=O)(=O)N[C@@H](CCCCN)C(=O)CCl)cc1 | Trypsin inhibitor
